Data from patent US10202361B2, “Pyridazinones as herbicides” (E I DU PONT DE NEMOURS AND COMPANY, priority 2014, dated 2019).
Read-outs that look alike come from different tables or passages of the source.

Assays:
Assay type in all cases: in vivo
[1] = tested on: barnyardgrass (Echinochloa crus-galli); assay: Test B flooded paddy test; conditions: Echinochloa crus-galli, 312 h; Flood, 125 g ai/ha; scale of 0 to 100, 0 is no effect, 100 is complete control; 13 to 15 d; read-out: Plant response rating, Barnyardgrass
Procedure, shortened: (§1)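 Plants at the 2-leaf stage were flooded to 3 cm and treated by applying compound directly to the paddy water, with depth held constant throughout. After 13–15 d in a greenhouse, injury was rated visually against controls on a 0 (no effect) to 100 (complete control) scale.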

[2] = tested on: ducksalad (Heteranthera limosa); assay: Test B flooded paddy test; conditions: Heteranthera limosa, 312 h; Flood, 125 g ai/ha; scale of 0 to 100, 0 is no effect, 100 is complete control; 13 to 15 d; read-out: Plant response rating, Ducksalad
Procedure, shortened: as §1

corn (Zea mays) = assay: Test C pre-/postemergence greenhouse herbicide test; conditions: Zea mays, Corn, read-out: Plant response rating; for plant injury at 31 g/ha: 31 g ai/ha; for plant injury at 62 g/ha: 62 g ai/ha; for plant injury at 125 g/ha: 125 g ai/ha; for plant injury at 250 g/ha: 250 g ai/ha
Procedure, shortened: (§2)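 Plant response is scored on a 0–100 scale, where 100 means complete control, by visual comparison with controls 13 to 15 d after greenhouse treatment. Applications are made pre- and postemergence using a surfactant-containing, non-phytotoxic solvent formulation.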

[3] = tested on: foxtail, giant (giant foxtail, Setaria faberii); assay: as above; conditions: Setaria faberi, Foxtail, Giant, read-out: Plant response rating; for pest or weed control at 31 g/ha: 31 g ai/ha; for pest or weed control at 62 g/ha: 62 g ai/ha; for pest or weed control at 125 g/ha: 125 g ai/ha; for pest or weed control at 250 g/ha: 250 g ai/ha
Procedure, shortened: as §2

[4] = tested on: johnsongrass (Sorghum halepense); assay: as above; conditions: Sorghum halepense, Johnsongrass, read-out: Plant response rating; for pest or weed control at 31 g/ha: 31 g ai/ha; for pest or weed control at 62 g/ha: 62 g ai/ha; for pest or weed control at 125 g/ha: 125 g ai/ha; for pest or weed control at 250 g/ha: 250 g ai/ha
Procedure, shortened: as §2

[5] = tested on: lambsquarters (Chenopodium album); assay: as above
Procedure, shortened: as §2

[6] = tested on: nutsedge, yellow (yellow nutsedge, Cyperus esculentus); assay: as above; conditions: Cyperus, Nutsedge, Yellow, read-out: Plant response rating; for pest or weed control at 31 g/ha: 31 g ai/ha; for pest or weed control at 62 g/ha: 62 g ai/ha; for pest or weed control at 125 g/ha: 125 g ai/ha; for pest or weed control at 250 g/ha: 250 g ai/ha
Procedure, shortened: as §2

[7] = tested on: oilseed rape (Brassica napus); assay: as above; conditions: Oilseed Rape
Procedure, shortened: as §2

[8] = tested on: pigweed (Amaranthus retroflexus); assay: as above; conditions: Amaranthus retroflexus, Pigweed, read-out: Plant response rating; for pest or weed control at 31 g/ha: 31 g ai/ha; for pest or weed control at 62 g/ha: 62 g ai/ha; for pest or weed control at 125 g/ha: 125 g ai/ha; for pest or weed control at 250 g/ha: 250 g ai/ha
Procedure, shortened: as §2

soybean (Glycine max) = assay: as above; conditions: Glycine max, Soybean, read-out: Plant response rating; for plant injury at 62 g/ha: 62 g ai/ha; for plant injury at 125 g/ha: 125 g ai/ha; for plant injury at 250 g/ha: 250 g ai/ha
Procedure, shortened: as §2

[9] = tested on: velvetleaf (Abutilon theophrasti); assay: as above; conditions: Abutilon theophrasti, Velvetleaf, read-out: Plant response rating; for pest or weed control at 31 g/ha: 31 g ai/ha; for pest or weed control at 62 g/ha: 62 g ai/ha; for pest or weed control at 125 g/ha: 125 g ai/ha; for pest or weed control at 250 g/ha: 250 g ai/ha
Procedure, shortened: as §2

## Cc1cc(Oc2ccnc(C(F)(F)F)c2)nn(-c2ccc(C(F)(F)F)cc2)c1=O [Compound 6, 4-methyl-2-[4-(trifluoromethyl)phenyl]-6-[[2-(trifluoromethyl)-4-pyridinyl]oxy]-3(2H)-pyridazinone]
[1]
  pest or weed control at 125 g/ha: 0%
[2]
  pest or weed control at 125 g/ha: 0%
Corn (Zea mays); post-emergence, Postemergence
  plant injury at 31 g/ha: 15%
  plant injury at 62 g/ha: 25%
  plant injury at 125 g/ha: 25%
  plant injury at 250 g/ha: 35%
[3]; post-emergence, Postemergence
  pest or weed control at 31 g/ha: 25%
  pest or weed control at 62 g/ha: 35%
  pest or weed control at 125 g/ha: 65%
  pest or weed control at 250 g/ha: 85%
[4]; post-emergence, Postemergence
  pest or weed control at 31 g/ha: 5%
  pest or weed control at 62 g/ha: 10%
  pest or weed control at 125 g/ha: 20%
  pest or weed control at 250 g/ha: 40%
[5]; Postemergence, 31 g ai/ha
  Plant response rating: 75
[5]; Postemergence, 62 g ai/ha
  Plant response rating: 90
[5]; Postemergence, 125 g ai/ha
  Plant response rating: 95
[5]; Postemergence, 250 g ai/ha
  Plant response rating: 95
[6]; post-emergence, Postemergence
  pest or weed control at 31 g/ha: 5%
  pest or weed control at 62 g/ha: 5%
  pest or weed control at 125 g/ha: 5%
  pest or weed control at 250 g/ha: 15%
[7]; Postemergence, 31 g ai/ha
  Plant response rating: 85
[7]; Postemergence, 62 g ai/ha
  Plant response rating: 85
[7]; Postemergence, 125 g ai/ha
  Plant response rating: 95
[7]; Postemergence, 250 g ai/ha
  Plant response rating: 95
[8]; post-emergence, Postemergence
  pest or weed control at 31 g/ha: 85%
  pest or weed control at 62 g/ha: 95%
  pest or weed control at 125 g/ha: 95%
  pest or weed control at 250 g/ha: 95%
Soybean (Glycine max); post-emergence, Postemergence, 31 g ai/ha
  plant injury at 31 g/ha: 35%
Soybean (Glycine max); post-emergence, Postemergence
  plant injury at 62 g/ha: 50%
  plant injury at 125 g/ha: 50%
  plant injury at 250 g/ha: 65%
[9]; post-emergence, Postemergence
  pest or weed control at 31 g/ha: 45%
  pest or weed control at 62 g/ha: 45%
  pest or weed control at 125 g/ha: 55%
  pest or weed control at 250 g/ha: 95%

## COc1cc(=O)n(-c2ccc(C(F)(F)F)cc2)nc1Cc1ccnc(C(F)(F)F)c1 [Compound 16, 5-methoxy-2-[4-(trifluoromethyl)phenyl]-6-[[2-(trifluoromethyl)-4-pyridinyl]methyl]-3(2H)-pyridazinone]
[1]
  pest or weed control at 125 g/ha: 45%
[2]
  pest or weed control at 125 g/ha: 20%
Corn (Zea mays); post-emergence, Postemergence
  plant injury at 31 g/ha: 20%
  plant injury at 62 g/ha: 40%
  plant injury at 125 g/ha: 40%
  plant injury at 250 g/ha: 55%
Corn (Zea mays); pre-emergence, Preemergence
  plant injury at 31 g/ha: 45%
  plant injury at 62 g/ha: 60%
  plant injury at 125 g/ha: 75%
  plant injury at 250 g/ha: 75%
[3]; post-emergence, Postemergence
  pest or weed control at 31 g/ha: 15%
  pest or weed control at 62 g/ha: 15%
  pest or weed control at 125 g/ha: 30%
  pest or weed control at 250 g/ha: 55%
[3]; pre-emergence, Preemergence
  pest or weed control at 31 g/ha: 98%
  pest or weed control at 62 g/ha: 98%
  pest or weed control at 125 g/ha: 100%
  pest or weed control at 250 g/ha: 100%
[4]; post-emergence, Postemergence
  pest or weed control at 31 g/ha: 10%
  pest or weed control at 62 g/ha: 10%
  pest or weed control at 125 g/ha: 20%
  pest or weed control at 250 g/ha: 35%
[4]; pre-emergence, Preemergence
  pest or weed control at 31 g/ha: 60%
  pest or weed control at 62 g/ha: 75%
  pest or weed control at 125 g/ha: 85%
  pest or weed control at 250 g/ha: 98%
[5]; Postemergence, 31 g ai/ha
  Plant response rating: 70
[5]; Postemergence, 62 g ai/ha
  Plant response rating: 95
[5]; Postemergence, 125 g ai/ha
  Plant response rating: 95
[5]; Postemergence, 250 g ai/ha
  Plant response rating: 95
[5]; Preemergence, 31 g ai/ha
  Plant response rating: 100
[5]; Preemergence, 62 g ai/ha
  Plant response rating: 100
[5]; Preemergence, 125 g ai/ha
  Plant response rating: 100
[5]; Preemergence, 250 g ai/ha
  Plant response rating: 100
[6]; post-emergence, Postemergence
  pest or weed control at 31 g/ha: 5%
  pest or weed control at 62 g/ha: 5%
  pest or weed control at 125 g/ha: 5%
  pest or weed control at 250 g/ha: 20%
[6]; pre-emergence, Preemergence
  pest or weed control at 31 g/ha: 5%
  pest or weed control at 62 g/ha: 10%
  pest or weed control at 125 g/ha: 30%
  pest or weed control at 250 g/ha: 55%
[7]; Postemergence, 31 g ai/ha
  Plant response rating: 60
[7]; Postemergence, 62 g ai/ha
  Plant response rating: 60
[7]; Postemergence, 125 g ai/ha
  Plant response rating: 80
[7]; Preemergence, 31 g ai/ha
  Plant response rating: 65
[7]; Preemergence, 62 g ai/ha
  Plant response rating: 100
[7]; Preemergence, 125 g ai/ha
  Plant response rating: 100
[7]; Preemergence, 250 g ai/ha
  Plant response rating: 100
[8]; post-emergence, Postemergence
  pest or weed control at 31 g/ha: 55%
  pest or weed control at 62 g/ha: 90%
  pest or weed control at 125 g/ha: 95%
  pest or weed control at 250 g/ha: 95%
[8]; pre-emergence, Preemergence
  pest or weed control at 31 g/ha: 100%
  pest or weed control at 62 g/ha: 100%
  pest or weed control at 125 g/ha: 100%
  pest or weed control at 250 g/ha: 100%
Soybean (Glycine max); post-emergence, Postemergence
  plant injury at 62 g/ha: 50%
  plant injury at 125 g/ha: 55%
  plant injury at 250 g/ha: 65%
Soybean (Glycine max); pre-emergence, Preemergence
  plant injury at 62 g/ha: 25%
  plant injury at 125 g/ha: 65%
  plant injury at 250 g/ha: 75%
[9]; post-emergence, Postemergence
  pest or weed control at 31 g/ha: 25%
  pest or weed control at 62 g/ha: 50%
  pest or weed control at 125 g/ha: 60%
  pest or weed control at 250 g/ha: 75%
[9]; pre-emergence, Preemergence
  pest or weed control at 62 g/ha: 80%
  pest or weed control at 125 g/ha: 100%
  pest or weed control at 250 g/ha: 100%
